{"source": "patent US20040235766A1", "about": "(priority 2001, published 2004)", "origin": "cited, not measured here", "target": "DnaX protein (Escherichia coli, UniProt P06710)", "sequence (P06710 whole entry)": "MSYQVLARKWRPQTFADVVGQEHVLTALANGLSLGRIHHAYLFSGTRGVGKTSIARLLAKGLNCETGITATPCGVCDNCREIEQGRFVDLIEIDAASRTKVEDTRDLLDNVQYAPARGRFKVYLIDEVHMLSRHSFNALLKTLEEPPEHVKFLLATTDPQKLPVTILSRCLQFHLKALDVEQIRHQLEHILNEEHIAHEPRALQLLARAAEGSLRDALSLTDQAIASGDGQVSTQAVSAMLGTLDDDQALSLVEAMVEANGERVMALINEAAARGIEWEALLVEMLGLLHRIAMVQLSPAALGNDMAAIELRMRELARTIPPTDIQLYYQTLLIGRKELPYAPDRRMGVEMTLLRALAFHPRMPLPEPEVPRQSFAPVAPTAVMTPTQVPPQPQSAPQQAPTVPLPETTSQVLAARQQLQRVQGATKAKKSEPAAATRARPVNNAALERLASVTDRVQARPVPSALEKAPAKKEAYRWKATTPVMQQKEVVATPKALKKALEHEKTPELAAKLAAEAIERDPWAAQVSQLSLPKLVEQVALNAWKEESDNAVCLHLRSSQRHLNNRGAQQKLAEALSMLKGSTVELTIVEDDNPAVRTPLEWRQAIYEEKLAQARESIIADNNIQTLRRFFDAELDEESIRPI", "settings": "read-out: dissociation constant", "data": [{"smiles": "Nc1ncnc2c1ncn2[C@@H]1O[C@H](COP(=O)(O)OP(=O)(O)OP(=O)(O)O)[C@@H](O)[C@H]1O", "note": "[ATP]", "values": [{"measurement": "Kd", "result": "~2000", "unit": "nM"}]}]}
